One molecule from patent publication US7863446B2, “Heterocycles” (Orchid Research Laboratories Limited, priority 2006, dated 2011) can be followed below.

The test system of one experiment is NCI-H460. In words: Anti-cancer screen (MTT), NCI-H460. Format: cell-based. The settings on record: Homo sapiens, NCI-H460, 48 hours. As for the experimental part: (§1) Experimental drugs are screened for anti-cancer activity in three cell lines for their GI50, TG1 and LC50 values (using 5 concentrations for each compound). The cell lines are maintained in DMEM containing 10% fetal bovine serum. 96 well microtiter plates are inoculated with cells in […] for 24 hours at 37° C., 5% CO2, 95% air and 100% relative humidity. 5000 HCT116 cells/well, 5000 NCIH460 cells/well, 10000 U251 cells/well and 5000 MDAMB231 cells/well are plated. A separate plate with these cell lines is also inoculated to determine cell viability before the addition of the compounds (T0).
(§2) Addition of Experimental Drugs
(§3) Following 24-hour incubation, experimental drugs are added to the 96 well plates. Each plate contains one of the above cell lines and the following in triplicate: 5 different concentrations (0.01, 0.1, 1, 10 and 100 μM) of 4 different compounds, appropriate dilutions of a cytotoxic standard and control (untreated) wells. Compounds are dissolved in dimethylsulfoxide (DMSO) to make 20 mM stock solutions, on the day of drug addition and frozen at −20° C. Serial dilutions of these 20 mM stock solutions are made in complete growth medium such that 100 μL of these drug solutions in medium, of final concentrations equaling 0.01, 0.1, 1, 10 and 100 μM can be added to the cells in triplicate. Standard drugs whose anti-cancer activity has been well documented and which are regularly used are doxorubicin and SAHA.
(§4) Cells are incubated with compounds for 48 hours followed by the addition of 10 μL 3-(4,5-Dimethyl-2-thiazolyl)-2,5-diphenyl-2H-tetrazolium (MTT) solution per well and a subsequent incubation at 37° C., 5% CO2, 95% air and 100% relative humidity, protected from light. After 4 hours, well contents are aspirated carefully followed by addition of 150 μL DMSO per well. Plates are agitated to ensure solution of the formazan crystals in DMSO and absorbance read at 570 nm.
(§5) Calculation of GI50, TGI and LC50
(§6) Percent growth is calculated for each compound's concentration relative to the control and zero measurement wells (T0; viability right before compound addition).
(§7) If a test well's O.D. value is greater than the T0 measurement for that cell line % Growth=(test−zero)/(control−zero)×100
(§8) If a test well's O.D. value is lower than the T0 measurement for that cell line, then % Growth=(test−zero)/zero×100 Plotting % growth versus experimental drug concentration, GI50 is the concentration required to decrease % growth by 50%; TGI is the concentration required to decrease % growth by 100% and LC50 is the concentration required to decrease % growth by 150%.

The subject of another experiment is HCT-116. In words: Anti-cancer screen (MTT), HCT-116. It counts as cell-based. The settings on record: Homo sapiens, HCT-116, 48 hours. The protocol: as §1, §2, §3, §4, §5, §6, §7, §8
The test system of a further experiment is TNF-α. Description: LPS induced sepsis for measurement of TNF-α inhibition in mice. The settings on record: 50 mg/kg, oral, mice, serum 90 minutes after LPS. It counts as in vivo. The protocol: LPS Induced Sepsis for Measurement of TNF-α Inhibition in Mice
The LPS induced sepsis model in mice was performed as described by Les sekut et al (J Lab Clin Med 1994; 124:813-20). Female Swiss albino mice were selected and the body weights were equivalent within each group. The mice were fasted for 20 hours with free access to water. The mice were dosed orally with the test compound suspended in vehicle containing 0.5% Tween 80 in 0.25% Carboxy-methylcellulose sodium salt. The control mice were administered the vehicle alone. After 30 minutes of oral dosing, mice were injected with 500 μg of Lipopolysaccharide (Escherichia coli, LPS: B4 from Siga) in phosphate buffer saline solution into the intraperitoneal cavity of the mice. After 90 minutes of LPS administration mice were bled via retro-orbital sinus puncture. Blood samples were stored overnight at 4° C. Serum samples were collected by centrifuging the samples at 4000 rpm for 15 minutes at 4° C. Immediately the serum samples were analysed for TNF-α levels using commercially available mouse TNF-α ELISA kit (Amersham Biosciences) and assay was performed by the manufacturer instruction.
ED50 Measurement of TNF alpha Inhibition in Mice Sepsis Model

The next experiment has as its system IL-6. In words: In vitro measurement of IL-6 in human PBMC (LPS stimulated). It counts as cell-based. Put shortly: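 Human PBMC (0.5 million/well) pre-incubated with compound 15 min at 37 °C, then stimulated with E. coli LPS (1 μg/ml) for 18 h at 37 °C, 5% CO2. IL-6 in culture medium quantified by ELISA.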

Molecules are shown by their SMILES.

The term GI50 denotes the concentration that inhibits growth by half. Read a high GI50 as less potent growth inhibition. Usually inhibition stands for how much of the control response was suppressed. For `CNS(=O)(=O)c1ccc(-c2c(Cl)nc(C(F)(F)F)nc2-c2ccc(S(C)(=O)=O)cc2)cc1` [Example 4, 4-{4-Chloro-6-[4-(methylsulfonyl)phenyl]-2-(trifluoromethyl)pyrimidin-5-yl}-N-methylbenzenesulfonamide], the GI50 with NCI-H460 was 1.65 µM; in the experiment with HCT-116, 2 µM. The “TNF-α Inhibition (%) at 50 mg/kg” value in the experiment with TNF-α came out at 38.37%. In the experiment on IL-6 (1 μM, read-out: IL-6 Inhibition (%) Conc. (1 μM)), the inhibition at 1 µM is 27.2%. For the same molecule, in the experiment on IL-6 (10 μM, read-out: IL-6 Inhibition (%) Conc. (10 μM)), the inhibition at 10 µM is 100%.
